The results in this text go back to US8088828B2, “Treating benign prostate hyperplasia with SARMS” (priority 2002, dated 2012).

Structures are written as SMILES.

The test system of experiment [1] is male Sprague-Dawley rats (intact, hemi-orchidectomized, castrated). Description: Plasma testosterone, FSH, LH and osteocalcin in rats of varying hormonal status. Type of experiment: in vivo, rat. The conditions noted are these: for Plasma FSH levels / Plasma LH levels / Plasma osteocalcin levels / Plasma testosterone levels: 0.5 mg/day osmotic pump, 14 days. The source says: (§1) Methods: Compound VI was synthesized and characterized in the laboratory of Dr. Duane Miller at the University of Tennessee, Memphis, Tenn. Male Sprague-Dawley rats were purchased from Harlan Biosciences (Indianapolis, Ind.). The animals were maintained on a 12-h cycle of light and dark with food and water available ad libitum. All animal studies were reviewed and approved by the Animal Care and Use Committee of The Ohio State University, and conformed to the Principles of Laboratory Animal Care. Immature male Sprague-Dawley rats weighing […] were randomly distributed into 9 groups of 5 animals. One day before the initiation of drug treatment, groups 4 through 6 and groups 7 through 9 received unilateral or bilateral orchidectomy, respectively, via a midline scrotal incision. […] All drugs given to animals were freshly prepared as solutions in polyethylene glycol 300 (PEG 300). Groups 4 and 7 received treatment with vehicle alone (i.e., PEG 300). Animals in groups 3, 6, and 9 received testosterone propionate (TP, 0.5 mg/day) via implantation of subdermal osmotic pumps (Model 2002, Durect Corporation, Palo Alto, Calif.). Animals in groups 2, 5, and 8 received Compound VI (0.5 mg/day) via implantation of subdermal osmotic pumps. After 14 days of drug treatment, rats were weighed, anesthetized, and sacrificed. Blood samples were collected by venipuncture of the abdominal aorta. Plasma samples were analyzed for testosterone, FSH, LH and osteocalcin. Testosterone concentrations were measured by AniLytics Inc. (Gaithersburg, Md.). FSH and LH levels were measured by the National Hormone and Peptide Program (Dr. A F Parlow, UCLA, CA). Plasma osteocalcin levels were determined using a commercially available rat osteocalcin EIA kit from Biomedical Technologies Inc. (Stoughton, Mass.). The ventral prostates, seminal vesicles, and levator ani muscle were removed and weighed. Osmotic pumps were also removed from animals to check for correct pump operation. The weights of all organs were normalized to body weight, and analyzed for any statistically significant differences between groups using single-factor ANOVA with the alpha value set a priori at p<0.05. The weights of prostates and seminal vesicles were used as indices for evaluation of androgenic activity, and the levator ani muscle weight was used to evaluate the anabolic activity. Statistical analyses of parameters from complete blood count or serum chemical profiling, wherever applicable, were performed by single-factor ANOVA with the alpha value set a priori at p<0.05.

For experiment [2] the test system is unchanged. Description: Prostate, seminal vesicle and levator ani muscle weights in rats of varying hormonal status. Type of experiment: in vivo, rat. The conditions noted are these: 0.5 mg/day, 14 days.
Description: as §1

In experiment [3] the target is T1, human 5α-reductase type 1 (Homo sapiens, UniProt P18405).
T1 construct: expressed in transfected cells; host or cells: COS1 cells; expression vectors obtained from Dr. David W. Russell
T1 sequence (P18405 1-259): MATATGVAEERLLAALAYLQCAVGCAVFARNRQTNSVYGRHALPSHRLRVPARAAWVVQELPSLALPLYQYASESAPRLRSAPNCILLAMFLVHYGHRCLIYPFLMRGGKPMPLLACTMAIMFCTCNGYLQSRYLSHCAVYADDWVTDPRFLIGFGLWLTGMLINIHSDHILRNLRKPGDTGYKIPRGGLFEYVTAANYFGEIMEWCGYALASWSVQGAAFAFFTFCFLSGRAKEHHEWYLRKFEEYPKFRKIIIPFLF
In kind it is cell-based. The conditions noted are these: testosterone 4 μM alone, 2 hours. The procedure:
(§2) Methods: COS1 (American Type Culture Collection, Manassas, Va.) cells were plated in twelve-well plates at a density of 60,000 cells/well and transiently transfected with expression vectors for human 5•-reductase (obtained from Dr. David W. Russell, Southwestern Medical Center, Dallas, Tex.). LipofectAMINE PLUS™ Reagent (Invitrogen, Carlsbad, Calif.) was used for transfection. pCMV•SPORT-•gal plasmid (Invitrogen, Carlsbad, Calif.) was co-transfected to monitor transfection efficiency. Forty-eight hours after transfection, testosterone (4 μM) and/or Compound VI (2 or 200 μM) were added to the medium and incubated at 37° C. Aliquots of the culture medium were removed after 2 hours and the reaction stopped by addition of ice-cold acetonitrile (1:1, vol:vol). Testosterone and Compound VI concentrations in the incubate were determined by HPLC using a reversed-phase column (μBondaPak C18, 3.9×300 mm, Waters Corporation, Milford, Mass.) and a mobile phase of 38% acetonitrile in deionized water at a flow rate of 1.5 ml/min. Analytes were detected by UV absorbance at 254 nm. Calibration curves were prepared using the peak areas to calculate the concentration of testosterone or Compound VI in the incubate at the completion of the reaction. Cells were lysed after the reaction and the cellular supernatant used to determine •-galactosidase activity and ensure equal transfection efficiency between wells.

Experiment [4] deals with T2, human 5α-reductase type 2 (Homo sapiens, UniProt P31213).
T2 construct: expressed in transfected cells; host or cells: COS1 cells; expression vectors obtained from Dr. David W. Russell
T2 sequence (P31213 1-254): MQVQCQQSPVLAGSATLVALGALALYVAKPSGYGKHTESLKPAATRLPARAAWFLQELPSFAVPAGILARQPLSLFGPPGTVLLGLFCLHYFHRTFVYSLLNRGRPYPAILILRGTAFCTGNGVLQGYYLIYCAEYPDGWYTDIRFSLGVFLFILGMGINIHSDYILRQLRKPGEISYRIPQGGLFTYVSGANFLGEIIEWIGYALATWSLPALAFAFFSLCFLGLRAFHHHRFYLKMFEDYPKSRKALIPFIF
In kind it is cell-based. The conditions noted are these: testosterone 4 μM alone, 2 hours. The method, then: as §2

Experiment [5] has as its system intact male Sprague-Dawley rats. Description: Organ weights in intact male rats after 3, 6 or 9 days of daily subcutaneous injections. In kind it is in vivo, rat. The procedure:
Methods: Male Sprague-Dawley rats were purchased from Harlan Biosciences (Indianapolis, Ind.). The animals were maintained on a 12-h cycle of light and dark with food and water available ad libitum. Male Sprague-Dawley rats weighing 189 to 226 g were randomly distributed into groups of 5 animals. The intact male rats were treated with hydroxy-flutamide (0.5, 1, 5, 10 or 25 mg/kg), finasteride (5 mg/kg), Compound VII (0.5, 1, 5, 10, 25 mg/kg) or vehicle for 3, 6, or 9 days. The drugs were dissolved in DMSO:PEG300 (20:80, v:v) and administered via daily subcutaneous injections, and the dosages were adjusted based on animal's body weight, which was measured on a daily basis. A group of castrated rats (n=5) was also included as control for each time point. […] The organ weights were normalized with the body weights. Percentage changes were determined by comparison to intact animals. Statistical analyses of all the parameters were performed by single-factor ANOVA with the alpha value set a priori at p<0.05.

Where [6] appears, read: 3 days, all doses (0.5, 1, 5, 10, mg/kg) s.c.

As to `CCC(=O)O[C@H]1CC[C@H]2[C@@H]3CCC4=CC(=O)CC[C@]4(C)[C@H]3CC[C@]12C` [TP, testosterone propionate, reference compound], the “effect on plasma osteocalcin levels” value in experiment [1] (all surgical groups, 0.5 mg/day) was “no effect”. Moreover, in experiment [1] (castrated male rats, 0.5 mg/day), the “effect on plasma FSH and LH levels” value is recorded as “significant decrease”. In addition, in experiment [1] (castrated rats), the “Plasma FSH levels” value is given as 58.0 ± 6.9 † ‡ ng/ml, the “Plasma LH levels” value is 6.702 ± 1.513 ‡ ng/ml, the Plasma osteocalcin levels was found to be 65.976 ± 11.213 ng/mL and the Plasma testosterone levels is on record as 0.258 ± 0.103 † ‡ ng/ml. In addition, in experiment [1] (hemi-orchidectomized rats), the “Plasma FSH levels” value stood at 17.2 ± 3.3 ng/mL, the “Plasma LH levels” value was 0.124 ± 0.092 ng/mL, the Plasma osteocalcin levels was found to be 77.236 ± 24.418 ng/mL and the Plasma testosterone levels was 2.366 ± 1.232 ng/mL. Further, in experiment [1] (intact rats), the “Plasma FSH levels” value is 11.4 ± 1.7 ng/mL, the “Plasma LH levels” value amounted to 0.168 ± 0.173 ng/mL, the Plasma osteocalcin levels worked out at 74.952 ± 15.399 ng/mL and the Plasma testosterone levels worked out at 1.482 ± 0.416 ng/mL. Also, in experiment [2] (castrated rats), the “Levator ani muscle weight normalized to body weight” value is on record as 87.27 ± 10.25 % of intact control, the “Prostate weight normalized to body weight” value (from here on “Prostate weight normalized”) is 76.78 ± 10.43 % of intact control and the “Seminal vesicle weight normalized to body weight” value (“Seminal vesicle weight normalized” for short) is 63.48 ± 17.05 % of intact control. Besides, in experiment [2] (hemi-orchidectomized rats), the “Levator ani muscle weight normalized to body weight” value is recorded as 98.63 ± 10.47 % of intact control, the “Prostate weight normalized” value is on record as 98.57 ± 7.98 % of intact control and the “Seminal vesicle weight normalized” value is on record as 114.19 ± 23.81 % of intact control. Further, in experiment [2] (intact rats), the “Levator ani muscle weight normalized to body weight” value was 95.61 ± 9.34 % of intact control, the “Prostate weight normalized” value is given as 97.45 ± 10.82 % of intact control and the “Seminal vesicle weight normalized” value is reported as 103.95 ± 13.23 % of intact control.
`C[C@]12CC[C@H]3[C@@H](CCC4=CC(=O)CC[C@@]43C)[C@@H]1CC[C@@H]2O` [Testosterone, testosterone, reference compound]: the “decrease in testosterone concentration (conversion to DHT)” value was found to be 34% in experiment [3] and 35% in experiment [4].
For the molecule `CC(C)(C)NC(=O)[C@H]1CC[C@H]2[C@@H]3CC[C@H]4NC(=O)C=C[C@]4(C)[C@H]3CC[C@]12C` [finasteride], in experiment [5] (3 days, 5 mg/kg s.c.), the “effect on levator ani muscle weight” value is reported as “no effect”, the “prostate weight (compared to intact animals)” value was determined as 59% and the “seminal vesicle weight (compared to intact animals)” value is listed as 38%. In addition, in experiment [5] (6 days, 5 mg/kg s.c.), the “changes in levator ani muscle weight” value is listed as “no significant changes”, the “prostate weight (compared to intact animals)” value is reported as 67% and the “seminal vesicle weight (compared to intact animals)” value was determined as 47%. For the same molecule, in experiment [5] (9 days, 5 mg/kg s.c.), the “change in levator ani muscle weight” value is recorded as “not significantly changed”, the “prostate weight (compared to intact animals)” value was 55% and the “seminal vesicle weight (compared to intact animals)” value was 29%.
In the case of `CC(C)(O)C(=O)Nc1ccc([N+](=O)[O-])c(C(F)(F)F)c1` [hydroxy-flutamide], in experiment [5] (setting [6]), the “levator ani muscle weight (compared to intact animals)” value was roughly 85%; the “prostate weight (normalized to body weight, compared to intact animals)” value is on record as “approximately 60%”; the “seminal vesicle weight (compared to intact animals)” value is recorded as roughly 50%. In experiment [5] (6 days, 25 mg/kg s.c.), the “levator ani muscle weight (compared to intact animals)” value worked out at 65%, the “prostate weight (compared to intact animals)” value is listed as 54% and the “seminal vesicle weight (compared to intact animals)” value is 41%. Moreover, in experiment [5] (6 days, lower dose groups (0.5, 1, 5, 10 mg/kg) s.c.), the “organ weights (prostate, seminal vesicle, levator ani muscle)” value is given as “returned to the levels observed in intact animals”. Moreover, the “effects on all the organ weights compared to previous time points” value in experiment [5] (9 days, 25 mg/kg s.c.) is “maintained its effects on all the organ weights at a similar level”. Further, in experiment [5] (9 days, lower doses (0.5, 1, 5, 10 mg/kg) s.c., dose-dependent), the “changes in prostate, seminal vesicle and levator ani muscle weights” value is listed as “moderate decreases”.
